Laboratory results from publication PMC10331583, “Control of fibrosis with enhanced safety via asymmetric inhibition of prolyl‐tRNA synthetase 1” (EMBO Molecular Medicine, 2023).
Several values for one entry are separate records, joined by “and”; a condition that tells them apart may be missing. Equal entries are not always repeated. Where two headings read alike, the source gives them in different places.

Legend:
WI‐26 VA4 cells [1] = assay: CellTiter‐Glo assay (cytotoxicity)
Experimental: (§1) After 24 h, the cells were incubated with various concentrations of compounds for 48 h. The level of ATP as a measure of cell viability was determined using a CellTiter‐Glo® luminescent cell viability assay kit (Promega, G7571) following the manufacturer's instructions.
(§2) WI‐26 VA4 cells were seeded at 1.2 × 10^4 cells/well in 96‐well white plates. After 24 h, the cells were incubated with the indicated concentrations of compounds for 72 h. The viability was determined as described above.

[2] = CellTiter‐Glo assay (cytotoxicity); details: human, WI-26 VA4 cells
Experimental: as §1, §2

WI‐26 VA4 cells [3] = assay: Collagen ELISA (secreted pro‐collagen I)
Experimental: WI‐26 VA4 cells were seeded at 3.5 × 10^4 cells/well on 24 well plates. After 24 h, the cells were starved of serum for 6 h. Then, the cells were incubated with the indicated concentrations of compounds in the presence of TGF‐β (2 ng/ml) (R&D systems, 240‐B‐002) for 72 h. The supernatant of the cells was collected and centrifuged at 500 g for 5 min to remove cell debris. Then, the level of pro‐collagen I in the supernatant was determined using Human Pro‐collagen I alpha 1 DuoSet ELISA (R&D systems, DY6220‐05) and DuoSet ELISA Ancillary Reagent Kit 2 (R&D systems, DY008) following the manufacturer's instructions.

[4] = log(inhibitor) vs. response, variable slope (four parameters), concentration in nM

Compound `O=C(C[C@H]1NCCC[C@@H]1O)Cn1cnc2ccc(-c3cccc(F)c3)cc21` [DWN11251] has an activity at 0.03 µM (WI‐26 VA4 cells [1]; Homo sapiens, WI26VA4, read-out: CellTiter-Glo % of control, 30 nM, Experiment #1, replicates) of 108%, an activity at 0.03 µM (WI‐26 VA4 cells [1]; Homo sapiens, WI26VA4, read-out: CellTiter-Glo % of control, 30 nM, Experiment #2, replicates) of 124% and an activity at 0.1 µM (WI‐26 VA4 cells [1]; Homo sapiens, WI26VA4, read-out: CellTiter-Glo % of control, 100 nM, Experiment #1, replicates) of 112%. For the same compound, the activity at 0.1 µM (WI‐26 VA4 cells [1]; Homo sapiens, WI26VA4, read-out: CellTiter-Glo % of control, 100 nM, Experiment #2, replicates) was 126%, the activity at 0.3 µM (WI‐26 VA4 cells [1]; Homo sapiens, WI26VA4, read-out: CellTiter-Glo % of control, 300 nM, Experiment #1, replicates) was 98.2% and the activity at 0.3 µM (WI‐26 VA4 cells [1]; Homo sapiens, WI26VA4, read-out: CellTiter-Glo % of control, 300 nM, Experiment #2, replicates) was 105%. For the same compound, the activity at 1 µM (WI‐26 VA4 cells [1]; Homo sapiens, WI26VA4, read-out: CellTiter-Glo % of control, 1000 nM, Experiment #1, replicates) was 73.2%, the activity at 1 µM (WI‐26 VA4 cells [1]; Homo sapiens, WI26VA4, read-out: CellTiter-Glo % of control, 1000 nM, Experiment #2, replicates) was 76.4% and the activity at 3 µM (WI‐26 VA4 cells [1]; Homo sapiens, WI26VA4, read-out: CellTiter-Glo % of control, 3000 nM, Experiment #1, replicates) was 36.1%. It also gave an activity at 3 µM (WI‐26 VA4 cells [1]; Homo sapiens, WI26VA4, read-out: CellTiter-Glo % of control, 3000 nM, Experiment #2, replicates) of 46.1%, an activity at 10 µM (WI‐26 VA4 cells [1]; Homo sapiens, WI26VA4, read-out: CellTiter-Glo % of control, 10000 nM, Experiment #1, replicates) of 26.6% and an activity at 10 µM (WI‐26 VA4 cells [1]; Homo sapiens, WI26VA4, read-out: CellTiter-Glo % of control, 10000 nM, Experiment #2, replicates) of 30%. The activity at 30 µM (WI‐26 VA4 cells [1]; Homo sapiens, WI26VA4, read-out: CellTiter-Glo % of control, 30000 nM, Experiment #1, replicates) was 12.4%, the activity at 30 µM (WI‐26 VA4 cells [1]; Homo sapiens, WI26VA4, read-out: CellTiter-Glo % of control, 30000 nM, Experiment #2, replicates) was 11.9% and the activity at 100 µM (WI‐26 VA4 cells [1]; Homo sapiens, WI26VA4, read-out: CellTiter-Glo % of control, 100000 nM, Experiment #1, replicates) was 1.59%. For the same compound, the activity at 100 µM (WI‐26 VA4 cells [1]; Homo sapiens, WI26VA4, read-out: CellTiter-Glo % of control, 100000 nM, Experiment #2, replicates) was 0.95%, the activity at 0.0001 µM (WI‐26 VA4 cells [1]; Homo sapiens, WI26VA4, read-out: CellTiter-Glo % of control, average, 0.1 nM, average) was 110% and the activity at 0.0003 µM (WI‐26 VA4 cells [1]; Homo sapiens, WI26VA4, read-out: CellTiter-Glo % of control, average, 0.3 nM, average) was 116%. For the same compound, the activity at 0.001 µM (WI‐26 VA4 cells [1]; Homo sapiens, WI26VA4, read-out: CellTiter-Glo % of control, average, 1 nM, average) was 108%, the activity at 0.003 µM (WI‐26 VA4 cells [1]; Homo sapiens, WI26VA4, read-out: CellTiter-Glo % of control, average, 3 nM, average) was 112% and the activity at 0.01 µM (WI‐26 VA4 cells [1]; Homo sapiens, WI26VA4, read-out: CellTiter-Glo % of control, average, 10 nM, average) was 113%. It also gave an activity at 0.03 µM (WI‐26 VA4 cells [1]; Homo sapiens, WI26VA4, read-out: CellTiter-Glo % of control, average, 30 nM, average) of 119%, an activity at 0.1 µM (WI‐26 VA4 cells [1]; Homo sapiens, WI26VA4, read-out: CellTiter-Glo % of control, average, 100 nM, average) of 119% and an activity at 0.3 µM (WI‐26 VA4 cells [1]; Homo sapiens, WI26VA4, read-out: CellTiter-Glo % of control, average, 300 nM, average) of 101%. For the same compound, the activity at 1 µM (WI‐26 VA4 cells [1]; Homo sapiens, WI26VA4, read-out: CellTiter-Glo % of control, average, 1000 nM, average) was 76.7%, the activity at 3 µM (WI‐26 VA4 cells [1]; Homo sapiens, WI26VA4, read-out: CellTiter-Glo % of control, average, 3000 nM, average) was 41.3% and the activity at 10 µM (WI‐26 VA4 cells [1]; Homo sapiens, WI26VA4, read-out: CellTiter-Glo % of control, average, 10000 nM, average) was 29%. For the same compound, the activity at 30 µM (WI‐26 VA4 cells [1]; Homo sapiens, WI26VA4, read-out: CellTiter-Glo % of control, average, 30000 nM, average) was 14.4%, the activity at 100 µM (WI‐26 VA4 cells [1]; Homo sapiens, WI26VA4, read-out: CellTiter-Glo % of control, average, 100000 nM, average) was 1.22% and the “CellTiter-Glo LogIC50 (best-fit value)” value (WI‐26 VA4 cells [1]; [4]) was 3.259. For the same compound, the CC50 at 72 h [2] was 1820 nM, the “Collagen, % of control (single replicates per experiment)” value (WI‐26 VA4 cells [3]; 10 nM, 0.01 µM) was 112.57 % of control and 103.72 % of control and 109.80 % of control and 111.67 % of control and 110.64 % of control and the “Collagen, % of control (single replicates per experiment)” value (WI‐26 VA4 cells [3]; 100 nM, 0.1 µM) was 84.02 % of control and 93.58 % of control and 96.09 % of control and 96.94 % of control and 92.86 % of control. For the same compound, the “Collagen, % of control (single replicates per experiment)” value (WI‐26 VA4 cells [3]; 300 nM, 0.3 µM) was 47.78 % of control and 47.63 % of control and 53.20 % of control and 53.43 % of control and 55.58 % of control, the “Collagen, % of control (single replicates per experiment)” value (WI‐26 VA4 cells [3]; 1000 nM, 1 µM) was 11.57 % of control and 11.31 % of control and 12.08 % of control and 14.51 % of control and 14.77 % of control and the “Collagen, % of control (single replicates per experiment)” value (WI‐26 VA4 cells [3]; 3000 nM, 3 µM) was 3.47 % of control and 2.67 % of control and 3.07 % of control and 3.55 % of control and 4.03 % of control. The “Collagen, % of control (single replicates per experiment)” value (WI‐26 VA4 cells [3]; 10000 nM, 10 µM) was 2.75 % of control and 2.12 % of control and 2.44 % of control and 2.49 % of control and 2.64 % of control, the “Collagen, % of control (single replicates per experiment)” value (WI‐26 VA4 cells [3]; 30000 nM, 30 µM) was 3.52 % of control and the “CC50/collagen IC50” value (WI‐26 VA4 cells [3]; Fig 5E) was 7.08. It also gave an IC50 (WI‐26 VA4 cells [3]; Homo sapiens, WI26VA4, read-out: Collagen IC50 (best-fit value), log(inhibitor) vs. response, variable slope (four parameters) (converted)) of 257 nM, an activity at 0.01 µM (WI‐26 VA4 cells [3]; Homo sapiens, WI26VA4, read-out: Collagen, % of control (single replicates per experiment), 10 nM) of 112% and an activity at 0.03 µM (WI‐26 VA4 cells [3]; Homo sapiens, WI26VA4, read-out: Collagen, % of control (single replicates per experiment), 30 nM) of 109%. For the same compound, the activity at 0.1 µM (WI‐26 VA4 cells [3]; Homo sapiens, WI26VA4, read-out: Collagen, % of control (single replicates per experiment), 100 nM) was 81.3%, the activity at 0.3 µM (WI‐26 VA4 cells [3]; Homo sapiens, WI26VA4, read-out: Collagen, % of control (single replicates per experiment), 300 nM) was 42.9% and the activity at 1 µM (WI‐26 VA4 cells [3]; Homo sapiens, WI26VA4, read-out: Collagen, % of control (single replicates per experiment), 1000 nM) was 10.2%. It also gave an activity at 3 µM (WI‐26 VA4 cells [3]; Homo sapiens, WI26VA4, read-out: Collagen, % of control (single replicates per experiment), 3000 nM) of 2.81%, an activity at 10 µM (WI‐26 VA4 cells [3]; Homo sapiens, WI26VA4, read-out: Collagen, % of control (single replicates per experiment), 10000 nM) of 2.31% and an activity at 30 µM (WI‐26 VA4 cells [3]; Homo sapiens, WI26VA4, read-out: Collagen, % of control (single replicates per experiment), 30000 nM) of 2.54%. The activity at 0.01 µM (WI‐26 VA4 cells [3]; Homo sapiens, WI26VA4, read-out: Collagen, % of control, average, 10 nM, average) was 110%, the activity at 0.03 µM (WI‐26 VA4 cells [3]; Homo sapiens, WI26VA4, read-out: Collagen, % of control, average, 30 nM, average) was 108% and the activity at 0.1 µM (WI‐26 VA4 cells [3]; Homo sapiens, WI26VA4, read-out: Collagen, % of control, average, 100 nM, average) was 90.8%. For the same compound, the activity at 0.3 µM (WI‐26 VA4 cells [3]; Homo sapiens, WI26VA4, read-out: Collagen, % of control, average, 300 nM, average) was 50.1%, the activity at 1 µM (WI‐26 VA4 cells [3]; Homo sapiens, WI26VA4, read-out: Collagen, % of control, average, 1000 nM, average) was 12.4% and the activity at 3 µM (WI‐26 VA4 cells [3]; Homo sapiens, WI26VA4, read-out: Collagen, % of control, average, 3000 nM, average) was 3.27%. The activity at 10 µM (WI‐26 VA4 cells [3]; Homo sapiens, WI26VA4, read-out: Collagen, % of control, average, 10000 nM, average) was 2.46%, the activity at 30 µM (WI‐26 VA4 cells [3]; Homo sapiens, WI26VA4, read-out: Collagen, % of control, average, 30000 nM, average) was 2.88% and the “Collagen HillSlope (best-fit value)” value (WI‐26 VA4 cells [3]; log(inhibitor) vs. response, variable slope (four parameters)) was -1.623. The “Collagen LogIC50 (best-fit value)” value (WI‐26 VA4 cells [3]; [4]) was 2.409 and the “Relative (CC50)/(collagen IC50)” value (WI‐26 VA4 cells [3]; relative to HF, Fig 5E) was 2.11.
